These results are taken from article PMC9097292, “Activity of Estrogen Receptor β Agonists in Therapy-Resistant Estrogen Receptor-Positive Breast Cancer” (Frontiers in Oncology, 2022).

Data set [1] addresses T1, ERβ (estrogen receptor β) (Homo sapiens, UniProt Q92731).
T1 construct: gene ESR2; c-Flag ERβ (OHu25562D; pcDNA3.1+/C-(K) DYK)
Briefly: ERE-luciferase reporter assay in HEK293T cells transfected with Flag-ERβ (agonist). The class given is cell-based. In general terms: In a reporter assay the amount or activity of a reporter protein is the signal.

The target in data set [2] is T2, ERα (estrogen receptor α) (Homo sapiens, UniProt P03372).
T2 construct: gene ESR1; c-Flag ERα (OHu26586D; pcDNA3.1+/C-(K) DYK)
T2 sequence (P03372 1-595): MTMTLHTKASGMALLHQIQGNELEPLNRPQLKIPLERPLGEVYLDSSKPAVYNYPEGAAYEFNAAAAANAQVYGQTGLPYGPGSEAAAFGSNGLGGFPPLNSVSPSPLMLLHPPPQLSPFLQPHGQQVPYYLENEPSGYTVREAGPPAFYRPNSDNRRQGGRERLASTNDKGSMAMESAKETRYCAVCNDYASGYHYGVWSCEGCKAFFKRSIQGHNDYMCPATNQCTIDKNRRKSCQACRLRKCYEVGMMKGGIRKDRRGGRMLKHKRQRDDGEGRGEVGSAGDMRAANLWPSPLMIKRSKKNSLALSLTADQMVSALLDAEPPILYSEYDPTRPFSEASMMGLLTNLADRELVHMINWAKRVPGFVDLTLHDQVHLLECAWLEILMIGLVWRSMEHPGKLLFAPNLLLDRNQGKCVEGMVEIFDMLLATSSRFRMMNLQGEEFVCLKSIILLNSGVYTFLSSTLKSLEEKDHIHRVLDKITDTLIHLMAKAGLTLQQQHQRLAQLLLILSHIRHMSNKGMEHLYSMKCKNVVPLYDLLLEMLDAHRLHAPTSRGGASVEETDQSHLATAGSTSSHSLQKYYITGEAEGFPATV
The data set is described as follows: ERE-luciferase reporter assay in HEK293T cells transfected with Flag-ERα (weaker activation than ERβ). It counts as cell-based.

T1 sequence (Q92731 whole entry): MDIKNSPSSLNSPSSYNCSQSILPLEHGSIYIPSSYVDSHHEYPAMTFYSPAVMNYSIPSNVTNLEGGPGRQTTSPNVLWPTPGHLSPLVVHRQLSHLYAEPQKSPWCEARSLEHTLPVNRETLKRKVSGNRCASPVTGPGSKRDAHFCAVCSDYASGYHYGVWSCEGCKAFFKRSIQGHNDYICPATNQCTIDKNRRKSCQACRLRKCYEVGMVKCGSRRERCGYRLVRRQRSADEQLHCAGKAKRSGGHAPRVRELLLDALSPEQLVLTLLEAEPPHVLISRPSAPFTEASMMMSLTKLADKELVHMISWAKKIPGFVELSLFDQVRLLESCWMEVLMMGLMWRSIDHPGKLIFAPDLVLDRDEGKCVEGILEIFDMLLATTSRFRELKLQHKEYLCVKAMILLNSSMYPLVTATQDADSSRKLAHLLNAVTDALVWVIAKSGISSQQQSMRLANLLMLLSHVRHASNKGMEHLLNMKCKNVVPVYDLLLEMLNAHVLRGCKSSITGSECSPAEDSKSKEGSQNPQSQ

For the compound `Oc1ccc([C@@H]2Oc3ccc(O)cc3[C@@H]3CCC[C@@H]32)cc1` [LY500307], the fold induction at 0.01 µM in data set [1] (HEK-293T, read-out: ERE-luciferase reporter assay in HEK293T cells transfected with Flag-ERβ (agonis)) came to 84; in data set [2] (HEK-293T), 2.1.

Regarding OSU-ERb-12, the “ERE-luciferase reporter assay in HEK293T cells transfected with Flag-ERβ (agonis)” value in data set [1] (hek293t cells, 0.03 µM) is reported as ~ 40 fold activation at 30 nmol/l. Further, the “ERE-luciferase reporter assay in HEK293T cells transfected with Flag-ERα (weaker)” value in data set [2] (hek293t cells, 0.03 µM) was ~ 4 fold activation at 30 nmol/l.
